Data reported in patent US20060099712A1, “Correlation of anti-cancer activity of dyes with redox potentials” (Eastman Kodak Company, priority 2004, published 2006).

Test system: CX-1 Human Colon Carcinoma
Assay: Clonogenic dye screening assay, CX-1 cells (IC50)
Type: cell-based
Set-up: CX: unit not given here
Conditions: for CX (IC50 in the CX-1 cell line): 3 hrs treatment, colonies after 7-10 days, unit from method b117-118; for CV/CX (selectivity, kill ratio): ratio of IC50 in normal CV-1 line to IC50 in carcinoma CX-1 line; for CX: CX-1 cells; for CV/CX: selectivity ratio of IC50 values; for CV/C: selectivity ratio, value of 1 where dye inactive
Outline: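 Cells seeded 16-30 h ahead (2000 CX-1 or 1000 CV-1 per well), exposed to serially diluted dyes for 3 h at 37 °C, rinsed three times, then grown into colonies. Eight-point curves spanned 0.32-0.0015 μg/mL (CX-1) and 3.2-0.025 μg/mL (CV-1). IC50 is the concentration killing 50% of cells.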

[1] = Table XXI, oxathiacarbocyanine nitrogen substituents

SMILES	CX (IC50 in the CX-1 cell line)	CV/CX (selectivity, kill ratio)	also measured
CCN1/C(=C/C=C/c2sc3ccccc3[n+]2CCC=NNS(=O)(=O)c2ccc(C)cc2)Oc2ccccc21 [drawing 37|CCC═NNSO2Ph-4C|Et]	0.3 µg/mL	33.3	–
CCN1C(=CC=Cc2[te]c3ccccc3[n+]2CC)[Te]c2ccccc21 [drawing 46|Te|Te|H|H]	0.30 µg/mL	16.7	–
CCN1C(=CC=Cc2ccc3ccccc3[n+]2CC)C=Cc2ccccc21 [Dye B-301]	–	–	CX (Table XV, symmetrical dyes): 0.040; CV/CX (Table XV): 12.5
COc1ccc2c3c(ccc2c1)S/C(=C\C=C\c1sc2ccc4cc(OC)ccc4c2[n+]1C)N3C [drawing 43|M|7-MeO|7-MeO]	0.09 µg/mL	35.5	–
CCN1/C(=C/C=C/c2sc3ccccc3[n+]2CC)Oc2cccc(O)c21 [drawing 44|E|H|4-OH]	–	0.43	–
CN1C(=CC(=Cc2sc3ccccc3[n+]2C)Sc2ccccc2)Sc2ccccc21 [drawing 38|M|H|SPh|H]	0.065 µg/mL	7.69	–
CCN1/C(=C/C=C/c2sc3ccccc3[n+]2CCC=O)Oc2ccccc21 [R1=CCC═0, R2=Et]	–	–	CX [1]: 0.1; CV/C (Table XXI): 50.0
CCN1/C(=C/C=C/c2sc3ccccc3[n+]2CCC=O)Oc2ccccc21 [drawing 37|CCC═O|Et]	0.1 µg/mL	50.0	–
CCN1C(=CC(C)=Cc2sc3ccccc3[n+]2CC)Oc2ccccc21 [drawing 39|E|H|Me]	0.05 µg/mL	20.0	–
CCN1/C(=C/C=C/c2sc3ccc(C#N)cc3[n+]2CC)Oc2ccccc21 [drawing 44|E|5-CN|H]	–	>13.3	–
CCN1C(=CC=Cc2sc3ccccc3[n+]2CC)N(CC)c2cc(Cl)c(Cl)cc21 [benzimidazole(5,6-Cl)]	–	–	CX (Table XVI, unsymmetrical dyes): 0.260; CV/CX (Table XVI): 0.8
CCC=NNC(N)=S [drawing 37|CCC═NNC(═S)N|Et]	>1.0 µg/mL	10.0	–
CN1/C(=C/C=C/c2[te]c3ccc(O)cc3[n+]2C)[Te]c2ccc(O)cc21 [R=M, X=Te, Z1=5-OH, R2=H, Z2=5-OH]	–	–	CV/CX (Table XVII): 7.6
CCN1/C(=C/C=C/c2sc3ccccc3[n+]2CCC=NNC(N)=S)Oc2ccccc21 [R1=CCC═NNC(═S)N, R2=Et]	–	–	CX [1]: >1.0; CV/C (Table XXI): 1.0
CCN(CC)C(=O)C[n+]1c(/C=C/C=C2\Oc3ccccc3N2CC)sc2ccccc21 [drawing 37|Cc(═0)N(Et)2|Et]	0.3 µg/mL	>33.3	–
CCC(=Cc1sc2ccccc2[n+]1C)C=C1Sc2ccccc2N1C [drawing 38|M|H|Et|H]	–	14.0	–
CC[n+]1c(/C(=C/C=C2\Oc3ccccc3N2C)Sc2ccccc2)sc2ccccc21 [drawing 39|M/E|SPh|H]	–	3.0	–
CCN1/C(=C/C=C/c2sc3ccccc3[n+]2CC(=O)c2ccc(O)cc2O)Oc2ccccc21 [drawing 37|CC(═O)Ph-2,4-OH|Et]	0.3 µg/mL	>33.3	–
CCN1/C(=C/C=C/c2sc3ccccc3[n+]2CC(=O)N2CCOCC2)Oc2ccccc21 [R1=CC(═0)morpholino, R2=Et]	–	–	CX [1]: >1.0; CV/C (Table XXI): 1.0

SMILES	CX (IC50 in the CX-1 cell line)	CV/CX (selectivity, kill ratio)	also measured
CCN1/C(=C/C=C/c2sc3ccccc3[n+]2CCNS(=O)(=O)c2ccc(C)cc2)Oc2ccccc21 [drawing 37|CCNSO2Ph-4C|Et]	0.3 µg/mL	26.7	–
CCN1C(=CC=c2sc(=Cc3sc4c([n+]3CC)CCCC4)n(CC)c2=O)Oc2ccccc21.[I-] (mixture of isomers) [Dye D-170]	–	100.0	–
CC[n+]1c(/C=C/C=C2\Oc3cc([N+](=O)[O-])c(Cl)cc3N2C)sc2cc([N+](=O)[O-])ccc21 [drawing 44|E/M|6-N03|5-Cl, 6-N03]	–	10.0	–
O=C(C[n+]1c(/C=C/C=C2/Nc3ccccc3S2)sc2ccccc21)N1CCOCC1 [drawing 36|CC(═O)morpholino|H]	>0.32 µg/mL	10.0	–
CN1/C(=C/C=C/c2sc3c(F)c(F)c(F)c(F)c3[n+]2C)Sc2c(F)c(F)c(F)c(F)c21 [drawing 41|Me|4,5,6,7-F|4,5,6,7-F]	>0.32 µg/mL	10.0	–
CCN1C=C(c2ccccc2)O/C1=C\C=C\c1oc(-c2ccccc2)c[n+]1CC.[I-] [Dye D-118]	0.08 µg/mL	93.75	–
CCN1/C(=C\C=C\c2[se]c3ccccc3[n+]2CC)Sc2cc(O)c(O)cc21 [drawing 42|H|5,6-OH]	0.300 µg/mL	–	–
CCN1/C(=C/C(C)=C/c2[te]c3ccc(C)cc3[n+]2CC)Sc2ccc(OC)cc21 [R=E, X=S, Z1=5-Me, R2=Me, Z2=5-MeO]	–	–	CX (Table XVII, benzotellurazole derivatives): 0.03; CV/CX (Table XVII): 33.3
CCN1/C(=C/C=C/c2sc3ccccc3[n+]2CC(=O)c2ccccc2)Oc2ccccc21 [drawing 37|CC(═O)Ph|Et]	0.3 µg/mL	10.0	–
CCN1C(=CC=Cc2sc3cc(OC)c(OC)cc3[n+]2CC)Sc2ccccc21 [drawing 41|Et|5,6-MeO|H]	0.02 µg/mL	20.0	–
CCSC(=Cc1sc2ccccc2[n+]1CC)C=C1Sc2ccccc2N1CC [drawing 38|E|H|Set|H]	0.04 µg/mL	15.0	–
CCC(=Cc1sc2ccccc2[n+]1CC)C=C1Oc2ccccc2N1CC [drawing 39|E|H|Et]	0.03 µg/mL	33.3	–
CCN1/C(=C/C=C/c2sc3c(N(C)C)cc(Cl)cc3[n+]2CC)Sc2ccccc21 [drawing 41|Et|5-Cl, 7-N(Me)2|H]	0.03 µg/mL	6.7	–
CSCCN1/C(=C\C=C\c2sc3ccccc3[n+]2CCSC)Sc2ccccc21 [drawing 36|CCSMe|CCSMe]	0.015 µg/mL	12	–
CC[n+]1c(/C=C/C=C2\Sc3ccc4ccccc4c3N2C)sc2ccccc21 [naphtho/1,2/thiazole (R=E/M)]	–	–	CX (Table XVI, unsymmetrical dyes): 0.300; CV/CX (Table XVI): 13.3
CCN1C(=CC(=Cc2sc3ccccc3[n+]2CC)c2cccs2)Sc2ccccc21 [drawing 38|E|H|2Thienyl|H]	0.16 µg/mL	10.0	–
CCOC(=O)c1c(C)c(C=CC=C2SCCN2C)cc2[n+]1CCc1ccccc1-2.[O-][Cl+3]([O-])([O-])[O-] [Dye D-171]	–	62.5	–
CCSC(CCN1/C(=C/C=C/c2sc3ccccc3[n+]2CCC(SCC)SCC)Sc2ccccc21)SCC [drawing 36|CCC(SEt)2|CCC(SEt)2]	>0.32 µg/mL	<4.1	–
